Species: Rattus norvegicus
Test: Open TG-GATES - Regimen: Daily Repeat
Format: toxicity, organism-based, Sprague-Dawley
Design: regimen Daily Repeat, gender Male, age 6 weeks
Details: in vivo, po, 1 mg/kg, route gavage, dose level Low; for APTT / Bas / Eos / Fbg / Hb / Ht / Lym / MCH / MCHC / MCV / Mono / Neu / PT / Plat / RBC / Ret / WBC: tissue Blood; for KIDNEY_L / KIDNEY_R / KIDNEY_TOTAL: tissue Kidney; for LIVER: tissue Liver; for A/G / ALP / ALT / AST / BUN / CRE / Ca / Cl / DBIL / GLC / IP / K / LDH / Na / PL / RALB / TBIL / TC / TG / TP / gamma-GTP: tissue Plasma

`O=NN(CCCl)C(=O)NC1CCCCC1` [LOMUSTINE] was tested, and the TERMINAL_BW (72 h, time 3 day) was 228.6 g, the APTT (72 h, time 3 day) was 15.3 s and the Bas (72 h, time 3 day) was 0%. It also gave an Eos (72 h, time 3 day) of 0.8%, a Fbg (72 h, time 3 day) of 224.2 mg/dL and a Hb (72 h, time 3 day) of 12.9 g/dL. The Ht (72 h, time 3 day) was 38.5%, the Lym (72 h, time 3 day) was 81.2% and the MCH (72 h, time 3 day) was 21.6 pg. It also gave an MCHC (72 h, time 3 day) of 33.4%, an MCV (72 h, time 3 day) of 64.8 fL and a Mono (72 h, time 3 day) of 7.6%. For the same compound, the Neu (72 h, time 3 day) was 10.2%, the PT (72 h, time 3 day) was 11.8 s and the Plat (72 h, time 3 day) was 108.2 x10_4/uL. It also gave an RBC (72 h, time 3 day) of 594.4 x10_4/ul, a Ret (72 h, time 3 day) of 8.5% and a WBC (72 h, time 3 day) of 121.5 x10_2/uL. It also gave a KIDNEY_L (72 h, time 3 day) of 1.1 g, a KIDNEY_R (72 h, time 3 day) of 1.1 g and a KIDNEY_TOTAL (72 h, time 3 day) of 2.2 g. It also gave an LIVER (72 h, time 3 day) of 11.3 g, an A/G (72 h, time 3 day) of 2.2 and an ALP (72 h, time 3 day) of 863 IU/L. The ALT (72 h, time 3 day) was 30 IU/L, the AST (72 h, time 3 day) was 62 IU/L and the BUN (72 h, time 3 day) was 16 mg/dL. For the same compound, the CRE (72 h, time 3 day) was 0.5 mg/dL, the Ca (72 h, time 3 day) was 11.1 mg/dL and the Cl (72 h, time 3 day) was 105 meq/L. It also gave a DBIL (72 h, time 3 day) of 0.022 mg/dL, a GLC (72 h, time 3 day) of 188 mg/dL and an IP (72 h, time 3 day) of 8.1 mg/dL. It also gave a K (72 h, time 3 day) of 4.9 meq/L, an LDH (72 h, time 3 day) of 78 IU/L and a Na (72 h, time 3 day) of 138.6 meq/L. The PL (72 h, time 3 day) was 144 mg/dL, the RALB (72 h, time 3 day) was 3.9 g/dL and the TBIL (72 h, time 3 day) was 0.3 mg/dL. It also gave a TC (72 h, time 3 day) of 79.2 mg/dL, a TG (72 h, time 3 day) of 85.8 mg/dL and a TP (72 h, time 3 day) of 5.7 g/dL. It also gave a gamma-GTP (72 h, time 3 day) of 1 IU/L, a TERMINAL_BW ([…], time 7 day) of 255.7 g and a TERMINAL_BW ([…], time 14 day) of 313 g. It also gave a TERMINAL_BW ([…], time 28 day) of 386.4 g, an APTT ([…], time 7 day) of 16.6 s and a Bas ([…], time 7 day) of 0%. The Eos ([…], time 7 day) was 0.6%, the Fbg ([…], time 7 day) was 235.2 mg/dL and the Hb ([…], time 7 day) was 13.3 g/dL. For the same compound, the Ht ([…], time 7 day) was 39.5%, the Lym ([…], time 7 day) was 80% and the MCH ([…], time 7 day) was 21.3 pg. The MCHC ([…], time 7 day) was 33.6%, the MCV ([…], time 7 day) was 63.6 fL and the Mono ([…], time 7 day) was 7.4%. It also gave a Neu ([…], time 7 day) of 12.4%, a PT ([…], time 7 day) of 11.7 s and a Plat ([…], time 7 day) of 109.6 x10_4/uL. The RBC ([…], time 7 day) was 621.2 x10_4/ul, the Ret ([…], time 7 day) was 6.3% and the WBC ([…], time 7 day) was 117.4 x10_2/uL. The APTT ([…], time 14 day) was 16.9 s, the Bas ([…], time 14 day) was 0% and the Eos ([…], time 14 day) was 0.6%. For the same compound, the Fbg ([…], time 14 day) was 235 mg/dL, the Hb ([…], time 14 day) was 13.9 g/dL and the Ht ([…], time 14 day) was 41.4%. It also gave a Lym ([…], time 14 day) of 83.4%, an MCH ([…], time 14 day) of 20.8 pg and an MCHC ([…], time 14 day) of 33.6%. The MCV ([…], time 14 day) was 61.9 fL, the Mono ([…], time 14 day) was 4.8% and the Neu ([…], time 14 day) was 11.4%. It also gave a PT ([…], time 14 day) of 11.5 s, a Plat ([…], time 14 day) of 119.3 x10_4/uL and an RBC ([…], time 14 day) of 669.6 x10_4/ul. It also gave a Ret ([…], time 14 day) of 5.5%, a WBC ([…], time 14 day) of 116.8 x10_2/uL and an APTT ([…], time 28 day) of 16.6 s. For the same compound, the Bas ([…], time 28 day) was 0%, the Eos ([…], time 28 day) was 1.2% and the Fbg ([…], time 28 day) was 225 mg/dL. It also gave a Hb ([…], time 28 day) of 15.1 g/dL, a Ht ([…], time 28 day) of 45.4% and a Lym ([…], time 28 day) of 82%. For the same compound, the MCH ([…], time 28 day) was 19 pg, the MCHC ([…], time 28 day) was 33.3% and the MCV ([…], time 28 day) was 57.1 fL. The Mono ([…], time 28 day) was 5.4%, the Neu ([…], time 28 day) was 11.8% and the PT ([…], time 28 day) was 11.6 s. It also gave a Plat ([…], time 28 day) of 109.6 x10_4/uL, an RBC ([…], time 28 day) of 797.4 x10_4/ul and a Ret ([…], time 28 day) of 2.6%. The WBC ([…], time 28 day) was 167.6 x10_2/uL, the KIDNEY_L ([…], time 7 day) was 1.2 g and the KIDNEY_R ([…], time 7 day) was 1.2 g. For the same compound, the KIDNEY_TOTAL ([…], time 7 day) was 2.3 g, the KIDNEY_L ([…], time 14 day) was 1.3 g and the KIDNEY_R ([…], time 14 day) was 1.2 g. For the same compound, the KIDNEY_TOTAL ([…], time 14 day) was 2.5 g, the KIDNEY_L ([…], time 28 day) was 1.3 g and the KIDNEY_R ([…], time 28 day) was 1.4 g. The KIDNEY_TOTAL ([…], time 28 day) was 2.7 g, the LIVER ([…], time 7 day) was 12.4 g and the LIVER ([…], time 14 day) was 14.7 g. The LIVER ([…], time 28 day) was 16.7 g, the A/G ([…], time 7 day) was 2 and the ALP ([…], time 7 day) was 865.2 IU/L. For the same compound, the ALT ([…], time 7 day) was 35.2 IU/L, the AST ([…], time 7 day) was 61.6 IU/L and the BUN ([…], time 7 day) was 17.6 mg/dL. It also gave a CRE ([…], time 7 day) of 0.5 mg/dL, a Ca ([…], time 7 day) of 10.9 mg/dL and a Cl ([…], time 7 day) of 106 meq/L. It also gave a DBIL ([…], time 7 day) of 0.018 mg/dL, a GLC ([…], time 7 day) of 195.2 mg/dL and an IP ([…], time 7 day) of 7.5 mg/dL. For the same compound, the K ([…], time 7 day) was 4.8 meq/L, the LDH ([…], time 7 day) was 87.8 IU/L and the Na ([…], time 7 day) was 139.6 meq/L. For the same compound, the PL ([…], time 7 day) was 148.2 mg/dL, the RALB ([…], time 7 day) was 3.9 g/dL and the TBIL ([…], time 7 day) was 0.3 mg/dL. For the same compound, the TC ([…], time 7 day) was 79.2 mg/dL, the TG ([…], time 7 day) was 71.4 mg/dL and the TP ([…], time 7 day) was 5.9 g/dL. The gamma-GTP ([…], time 7 day) was 1.2 IU/L, the A/G ([…], time 14 day) was 2 and the ALP ([…], time 14 day) was 821 IU/L. It also gave an ALT ([…], time 14 day) of 26.2 IU/L, an AST ([…], time 14 day) of 56.8 IU/L and a BUN ([…], time 14 day) of 19.2 mg/dL. For the same compound, the CRE ([…], time 14 day) was 0.5 mg/dL, the Ca ([…], time 14 day) was 11.3 mg/dL and the Cl ([…], time 14 day) was 106.6 meq/L. The DBIL ([…], time 14 day) was 0.01 mg/dL, the GLC ([…], time 14 day) was 184.4 mg/dL and the IP ([…], time 14 day) was 7.4 mg/dL. The K ([…], time 14 day) was 4.8 meq/L, the LDH ([…], time 14 day) was 84.6 IU/L and the Na ([…], time 14 day) was 139.8 meq/L. The PL ([…], time 14 day) was 175.2 mg/dL, the RALB ([…], time 14 day) was 4 g/dL and the TBIL ([…], time 14 day) was 0.3 mg/dL. The TC ([…], time 14 day) was 83.2 mg/dL, the TG ([…], time 14 day) was 141.4 mg/dL and the TP ([…], time 14 day) was 6.1 g/dL. For the same compound, the gamma-GTP ([…], time 14 day) was 1.8 IU/L, the A/G ([…], time 28 day) was 1.8 and the ALP ([…], time 28 day) was 696.4 IU/L. For the same compound, the ALT ([…], time 28 day) was 52.8 IU/L, the AST ([…], time 28 day) was 103.6 IU/L and the BUN ([…], time 28 day) was 20.4 mg/dL. The CRE ([…], time 28 day) was 0.4 mg/dL, the Ca ([…], time 28 day) was 10.9 mg/dL and the Cl ([…], time 28 day) was 105.6 meq/L. The DBIL ([…], time 28 day) was 0.006 mg/dL, the GLC ([…], time 28 day) was 195.2 mg/dL and the IP ([…], time 28 day) was 6.5 mg/dL. For the same compound, the K ([…], time 28 day) was 4.5 meq/L, the LDH ([…], time 28 day) was 172.8 IU/L and the Na ([…], time 28 day) was 139.6 meq/L. For the same compound, the PL ([…], time 28 day) was 165.2 mg/dL, the RALB ([…], time 28 day) was 4.2 g/dL and the TBIL ([…], time 28 day) was 0.3 mg/dL. The TC ([…], time 28 day) was 78.6 mg/dL, the TG ([…], time 28 day) was 139.8 mg/dL and the TP ([…], time 28 day) was 6.5 g/dL. It also gave a gamma-GTP ([…], time 28 day) of 1.6 IU/L.

Reference: ChEMBL document CHEMBL3885861, “Open TG-GATES”
